Read-outs that look alike come from different tables or passages of the source.
Experiments:
[1] = system: human colon tumor xenograft model (HCT-8, thymidine kinase (TK)-/-); format: in vivo; conditions: for durable cures: until termination at day 57
Description: Female Nu/Nu mice (18-24 g, 10-14 weeks old) were obtained from Harlan Sprague Dawley, and housed in microisolator filtration racks and maintained with filtered acidified water and sterile lab chow ad libitum. The human colon tumor xenograft model (HCT-8, thymidine kinase (TK)−/−) was obtained from Dr. Youcef M. Rustum (Roswell Park, Buffalo, N.Y.), and established in-house as a useful model for evaluation of thymidylate synthase inhibitors. Animals were allowed to acclimate to their new environment for 1 week prior to tumor cell implantation. Tumors were established by injecting harvested tumor cells in a single subcutaneous site on the flank of the mice in the axillary region. The tumors were grown until approximately 200+/−50 mm^3 in size. The animals were then sorted according to body weight, grouped four animals/cage, and tattooed on the tail for permanent identification. Groups consisting of 8 tumor-bearing mice each were administered weekly doses of experimental agents by IV bolus injection through the tail vein. Tumor volumes were determined with vernier caliper measurements taken at right angles using the formula, (L×W^2/2) and body weights, were collected twice weekly. Data was plotted as % change in body weight vs. time in days, and % tumor volume increase vs. days.
T=(mean) time in days for treated group to reach cutoff size (2 grams)
C=(mean) time in days for control group to reach cutoff size (2 grams)
WC is the mean tumor weight of control group at time x
Wt is mean tumor weight of treated group at time x
% Regression=100 (Wo−Wi)/Wo; where Wo is the mean tumor weight for treated group at the initiation of treatment and Wi=the mean tumor weight for that group at time some time x after treatment. Many times the time x=24-48 hr after the final dose of therapy.
The log10 cell kill (gross)=[T−C value in days/(3.32)(Td)
Where T−C=time difference in days between Treated and Control tumors to reach a defined end point; and Td is the Tumor Volume Doubling time in days from the best-fit straight line from a log-linear growth plot of the control tumors exponential growth (100-800 mg range). The conversion of the T−C values to the net log10 tumor cell kill are provided by subtraction of the duration of the treatment period from the T−C value and then dividing by 3.32×Td.
The initial experiment, designated NMX-427, tested the effects of GW1843U89 at two different dose levels, 50 and 100 mg/kg/day×17 days. The control group received vehicle alone. […] There were two durable cures, one in each of the dose groups, which remained until termination of the experiment at day 57. The side-effect toxicity as measured by gross body weight loss was minimal in both drug-treated groups, and was greatest in […]. […]

in vivo = assay: in vivo; design: species or system Male Sprague-Dawley rats; conditions: male, Sprague-Dawley, rat, iv, 1 mg/kg
Procedure: GW1843 (M.W. 500.51 g/mol) was obtained from Glaxo Wellcome, Inc. and suspended as an aqueous. Briefly, 616.74 milligrams of GW1843 was suspended in 1.4 mL 2 N NaOH. The solution was mixed until dissolved. To the dissolved solution 30 mL saline was added. The pH was adjusted to 7.15 with 2 N HCl. Finally, the solution was brought to 46.545 mL with saline. The nominal concentration was 13.25 mg/mL. UV absorption in 0.1 N sodium hydroxide at 266 nm, based on an extinction coefficient of 4.34×104 cm^−1 M^−1, determined the concentration. The concentration by UV spectroscopy was 13.97 mg/mL (5.4% difference from expected). The value determined by spectroscopy was utilized for standards in the HPLC assay. NX1843 lot SMC-991-96 (see Table 1A) was used for making quality control solutions.
Male Sprague-Dawley rats weighing 343.91 to 420.19 grams were used for the study. The in-life phase of the study was conducted in Boulder Colo. in accordance with the guidelines for animal welfare and care (NRC Publication Guide for the Care and Use of Laboratory Animals, 1996). IACUC protocol number N98010. Animals were allowed free access to food and water before and during treatment.
Individual animals treated with NX1843 were weighed and dosed at 1 mg/kg body weight by intravenous bolus administration into the tail vein while under isoflurane anesthesia.
Serial EDTA-blood samples (0.5 mL) were obtained at 5, 15, 30 and 45 minutes, and 1, 1.5 and 2 hr post-dosing for the GW1843 group while animals were under isoflurane anesthesia. For the NX1843 group, serial EDTA-blood samples (0.5 mL) were obtained at 10, 30 and 90 minutes and 4, 8, 24, 32, 48, 72 and 96 hours post-dosing. The EDTA-blood samples were immediately processed for plasma and plasma samples were stored at −20° C. until analysis.
An isocratic reverse phase high performance liquid chromatographic (HPLC) procedure was used for rapid determination of the total GW1843 concentration in rat EDTA-plasma. Following methanol precipitation of plasma protein (2 parts methanol to 1 part plasma), the protein was removed by centrifugation at 14,000×g for 10 minutes. A ZORBAX Eclipse™ XBD-C18 column (3 mm×15 cm) configured with a guard column was used to separate the soluble GW1843 (injection volume 20 μL). The HPLC buffer consisted of 80% 100-mM ammonium acetate pH 5.3, and 20% acetonitrile and the flow rate was 0.4 mL/min. The total run time was seven minutes and GW1843 was detected and quantified by ultraviolet absorbance at 264 nm. The standard curve consisted of free GW1843 spiked rat EDTA-plasma while the quality control samples consisted of NX1843 spiked rat EDTA-plasma. The range of the standard curve was 0.1 to 30.0 μg/mL.
The pharmacokinetic parameters for total GW1843 after i.v administration of GW1843 or liposome encapsulated GW1843 were assessed by a non-compartmental method using WinNonlin (version 1.5). The log/linear trapazoidal rule was used. For non-compartmental analysis, all three time points were utilized for the estimation the elimination phase for free GW1843 while the last 5 time points were utilized to estimate the elimination half-life of NX1843. Cmax values were estimated by extrapolation to zero time. Pharmacokinetic parameters were determined for each animal in the study. From values obtained in each group the mean and SD of each parameter was determined. The parameters estimated included:
The observed clearance (CL) of GW1843 following administration was calculated as: […]
Comparison of treatment groups was performed by unpaired t-tests of data obtained in the same experiment. A p-value of <0.05 was considered significant. Tests were performed using GraphPad Instat version 1.0 (GraphPad Software).

[2] = Concentration of GW1843 in Plasma

Cc1nc2ccc3ccc(CNc4ccc5c(c4)CN(C(CCC(=O)O)C(=O)O)C5=O)cc3c2c(=O)[nH]1 (stereo not shown) [GW1843]
log cell kill ([1]; 50 mg/kg/day×17 days): 3.0
durable cures ([1]; 50 mg/kg/day×17 days): one
log cell kill ([1]; 100 mg/kg/day×17 days): 3.3
durable cures ([1]; 100 mg/kg/day×17 days): one
volume of distribution of free drug relative to the liposome formulation (in vivo): ~14.6 fold
AUC(0-inf) (in vivo; AUC(0-inf)): 270 ± 28 ng·h/mL
AUC(0-t) (in vivo; AUC(0-last)): 250 ng·h/mL
clearance (in vivo; CL): 61 mL/min/kg
Cmax (in vivo; Cmax): 1620 to 1990 ng/mL
concentration at 0.083 hr (in vivo; [2]): 991 ng/mL
concentration at 0.25 hr (in vivo; [2]): 214 ng/mL
concentration at 0.5 hr (in vivo; [2]): 117 ng/mL
MRT inf (in vivo; MRT(0-inf)): 10.8 min
half-life (in vivo; T½ (terminal half-life)): 8.52 ± 0.42 min
Vd (in vivo; Vss): 0.654 L/kg
clearance (in vivo; plasma clearance): 62.3 mL/min
